Results published in patent US20220401439A1, “INTRANASAL PHARMACEUTICAL COMPOSITIONS OF CGRP INHIBITORS” (Biohaven Pharmaceutical Holding Company Ltd., priority 2019, published 2022).
Where two headings read alike, the source gives them in different places.

How the values were obtained:
pKa of drug substance = format: physicochemical; conditions: mono-hydrochloride salt form
[1] = Phase 1 multiple ascending dose (MAD) study, intranasal, pharmacokinetics; parameters: species or system human; conditions: in vivo
Experimental: A Phase 1, single-center, randomized, double-blind, placebo-controlled, sequential multiple ascending dose (MAD) study with 2 alternate dosing arms was conducted. […] The MAD portion of the study consists of 4 cohorts, with a maximum dose of 20 mg administered once daily for up to 14 days in 3 cohorts, and 20 mg administered twice daily for up to 8 days in the fourth cohort.
In addition to the 4 MAD cohorts, there were 2 alternate dosing cohorts, each consisting of 1 day dosing. The first alternate dosing cohort assessed the effect of 2 sequential administrations of 20 mg (20 mg spray [100 μL of 200 mg/mL] in alternate nostrils); with a 30 minute interval between administrations. A 2nd alternate dosing cohort assessed the effect of 2 sequential administrations of 20 mg (20 mg spray [100 μL of 200 mg/mL] in alternate nostrils); with a nose blow and 5 minute interval between administrations.
The PK data were collected from subjects in Cohorts 1 to 4.

[2] = human, inhaled or intranasal, 5 mg
[3] = human, inhaled or intranasal, 10 mg
[4] = human, inhaled or intranasal, 20 mg

## Cc1cc(C[C@@H](NC(=O)N2CCC(c3cc4ccccc4[nH]c3=O)CC2)C(=O)N2CCN(C3CCN(C)CC3)CC2)cc2cn[nH]c12 [Zavegepant, (R)—N-(3-(7-methyl-1H-indazol-5-yl)-1-(4-(1-methylpiperidin-4-yl)piperazin-1-yl)-1-oxopropan-2-yl)-4-(2-oxo-1,2-dihydroquinolin-3-yl)piperidine-1-carboxamide]
pKa of drug substance
  pKa: 4.8
[1]; human, 20 mg
  half-life: 3.69 to 4.93 h
[1]; human, Tmax
  Tmax: ~30 min
[1]; [2]
  AUC: 20.7 ng·h/mL
  AUC0-24 (ng*h/mL) geometric mean: 24.95 ng·h/mL
  AUC0-τ ss (ng*h/mL) geometric mean: 20.66 ng·h/mL
  AUC(0-inf): 22.4 ng·h/mL
  Cl/F (L/h) Mean: 293.27 L/h
  Tmax (h) Mean: 0.52 h
  Vd/F: 1570 L
  half-life: 3.69 h
[1]; human, inhaled or intranasal, 5 mg, AUC0-24 (ng*h/mL) geometric mean
  AUC(0-t): 24.9 ng·h/mL
[1]; human, inhaled or intranasal, 5 mg, AUC0-t (ng*h/mL) geometric mean
  AUC(0-t): 19 ng·h/mL
[1]; human, inhaled or intranasal, 5 mg, Tmax (h) Mean
  Tmax: 31.2 min
[1]; [3]
  AUC: 32.9 ng·h/mL
  AUC0-24 (ng*h/mL) geometric mean: 29.61 ng·h/mL
  AUC0-τ ss (ng*h/mL) geometric mean: 32.85 ng·h/mL
  AUC(0-inf): 33.9 ng·h/mL
  Cl/F (L/h) Mean: 341.09 L/h
  Tmax (h) Mean: 0.57 h
  Vd/F: 1660 L
  half-life: 3.84 h
[1]; human, inhaled or intranasal, 10 mg, AUC0-24 (ng*h/mL) geometric mean
  AUC(0-t): 29.6 ng·h/mL
[1]; human, inhaled or intranasal, 10 mg, AUC0-t (ng*h/mL) geometric mean
  AUC(0-t): 30.9 ng·h/mL
[1]; human, inhaled or intranasal, 10 mg, Tmax (h) Mean
  Tmax: 26.4 min
[1]; [4]
  AUC: 91 ng·h/mL
  AUC0-24 (ng*h/mL) geometric mean: 80.09 ng·h/mL
  AUC0-τ ss (ng*h/mL) geometric mean: 90.98 ng·h/mL
  AUC(0-inf): 92.4 ng·h/mL
  Cl/F (L/h) Mean: 254.40 L/h
  Tmax (h) Mean: 0.56 h
  Vd/F: 1740 L
[1]; human, inhaled or intranasal, 20 mg, AUC0-24 (ng*h/mL) geometric mean
  AUC(0-t): 80.1 ng·h/mL
[1]; human, inhaled or intranasal, 20 mg, AUC0-t (ng*h/mL) geometric mean
  AUC(0-t): 87.9 ng·h/mL
[1]; human, inhaled or intranasal, 20 mg, Cmax (ng/mL) geometric mean
  Cmax: 34.7 ng/mL
[1]; human, inhaled or intranasal, 20 mg, Tmax (h) Mean
  Tmax: 34.2 min
[1]; human, inhaled or intranasal, 20 mg once daily intranasal (Cohort 3), Day 14, read-out: T1/2 el (h) Mean (converted)
  half-life: 4.93 h
[1]; human, 5 mg, Day 14, nominal time 0.500 h, read-out: Plasma Concentrations (ng/mL) Mean
  concentration at 0.5 h: 8.08 ng/mL
[1]
  urine concentrations: below the limit of quantitation
